Here are results for 27 molecules from patent US12630552B2, “Inhibitors of KRAS G12C” (BEIGENE, LTD., priority 2019, dated 2026).

For this assay, the target named is T1, KRAS (aa 1-169) G12C, C51S, C80L, C118S (Homo sapiens, UniProt P01116, C118S/C51S/C80L/G12C).
T1 construct: The KRAS (aa 1-169) G12C, C51S, C80L, C118S with a His-tag; made in house
The experiment in a line: KRAS G12C SOS1-mediated nucleotide exchange / GST-cRaf RBD binding FRET assay. The assay is classed as biochemical. Conditions: GDP-loaded KRAS G12C pre-incubated with compound at 24° C. for 3 hrs; SOS1, GTPγS and GST-cRaf RBD added; FRET 665 nm/620 nm. The method, then: Biochemical Functional Assay:
The KRAS (aa 1-169) G12C, C51S, C80L, C118S with a His-tag was expressed, purified and loaded with GDP in house. All protein and substrate solutions were prepared in assay buffer containing 25 mM HEPES pH7.5, 10 mM MgCl2, and 0.01% Triton X-100. Purified GDP-loaded KRAS (aa 1-169) G12C, C51S, C80L, C118S protein was pre-incubated with a serially diluted compound at 24° C. for 3 hrs. Purified SOS1 (aa 564-1049) protein, GTPγS (Sigma) and GST-cRaf RBD (aa 1-149) were then added to each well and incubated at 24° C. for additional 3 hrs. […] Following the incubation, Mab Anti-6HIS-Tb cryptate (Cisbio) and Mab Anti GST-XL665 (Cisbio) were added and further incubated at 24° C. for 3 hrs. The binding interaction between active GTPγS KRAS G12C and GST-cRaf RBD brings the Tb and XL665 into close proximity enabling an increased FRET signal (Ex337 nm, Em665 nm/620 nm). The inhibition percentage of nucleotide exchange reaction in presence of increasing concentrations of compounds was calculated based on the ratio of fluorescence at 665 nm to that at 620 nm detected on a BMG PHERAstar FSX instrument. The IC50 value of each compound was calculated from fitting the data to the four-parameter logistic model by Dotmatics.

T1 sequence (P01116 1-169 isoform P01116-2 G12C/C51S/C80L/C118S): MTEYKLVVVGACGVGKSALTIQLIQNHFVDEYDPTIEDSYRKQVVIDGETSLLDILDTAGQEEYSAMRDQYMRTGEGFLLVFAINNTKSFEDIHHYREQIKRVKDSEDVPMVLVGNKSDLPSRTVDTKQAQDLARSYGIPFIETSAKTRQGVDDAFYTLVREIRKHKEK

`C=CC(=O)N1CCN(c2nc(OC[C@@H]3CCCN3C)nc3c2CN(Cc2cc(O)cc4ccccc24)C3)C[C@@H]1CC#N` [Example 25, 2-((S)-1-acryloyl-4-(6-((3-hydroxynaphthalen-1-yl)methyl)-2-(((S)-1-methylpyrrolidin-2-yl)methoxy)-6,7-dihydro-5H-pyrrolo[3,4-d]pyrimidin-4-yl)piperazin-2-yl)acetonitrile]: the IC50 is 3.27 nM.
With `C=CC(=O)N1CCN(c2nc(OC[C@@H]3CCCN3C)nc3c2CN(c2ccc4ccccc4c2)C3)C[C@@H]1CC#N` [Example 26] the figure was 1080 nM; with `C=CC(=O)N1CCN(c2nc(OC[C@@H]3CCCN3C)nc3c2CN(c2cccc4c2CCC4)C3)C[C@@H]1CC#N` [Example 27, 2-((S)-1-acryloyl-4-(6-(2,3-dihydro-1H-inden-4-yl)-2-(((S)-1-methylpyrrolidin-2-yl)methoxy)-6,7-dihydro-5H-pyrrolo[3,4-d]pyrimidin-4-yl)piperazin-2-yl)acetonitrile], 3720 nM.
For `C=CC(=O)N1CCN(c2nc(OC[C@@H]3CCCN3C)nc3c2CN(c2cccc4cccc(C)c24)C3)C[C@@H]1CC#N` [Example 28, 2-((S)-1-acryloyl-4-(6-(8-methylnaphthalen-1-yl)-2-(((S)-1-methylpyrrolidin-2-yl)methoxy)-6,7-dihydro-5H-pyrrolo[3,4-d]pyrimidin-4-yl)piperazin-2-yl)acetonitrile] the value was 178 nM; for `C=CC(=O)N1CCN(c2nc(OC[C@@H]3CCCN3C)nc3c2CN(C(=O)c2cc(O)cc4ccccc24)C3)C[C@@H]1CC#N` [Example 29, 2-((S)-1-acryloyl-4-(6-(3-hydroxy-1-naphthoyl)-2-(((S)-1-methylpyrrolidin-2-yl)methoxy)-6,7-dihydro-5H-pyrrolo[3,4-d]pyrimidin-4-yl)piperazin-2-yl)acetonitrile], 2.42 nM; for `C=CC(=O)N1CCN(c2nc(OC[C@@H]3CCCN3C)nc3c2CN(C(=O)c2cccc4cccc(Cl)c24)C3)C[C@@H]1CC#N` [Example 30, 2-((S)-1-acryloyl-4-(6-(8-chloro-1-naphthoyl)-2-(((S)-1-methylpyrrolidin-2-yl)methoxy)-6,7-dihydro-5H-pyrrolo[3,4-d]pyrimidin-4-yl)piperazin-2-yl)acetonitrile], 15 nM.
With `C=CC(=O)N1CCN(c2nc(OC[C@@H]3CCCN3C)nc3c2CN(C(=O)c2c(C)ccc4[nH]ncc24)C3)C[C@@H]1CC#N` [Example 31, 2-((S)-1-acryloyl-4-(6-(5-methyl-1H-indazole-4-carbonyl)-2-(((S)-1-methylpyrrolidin-2-yl)methoxy)-6,7-dihydro-5H-pyrrolo[3,4-d]pyrimidin-4-yl)piperazin-2-yl)acetonitrile] the figure was 301 nM.
In the case of `C=CC(=O)N1CCN(c2nc(OC[C@@H]3CCCN3C)nc3c2CN(C(=O)c2cccc4ccccc24)C3)C[C@@H]1CC#N` [Example 32, 2-((S)-4-(6-(1-naphthoyl)-2-(((S)-1-methylpyrrolidin-2-yl)methoxy)-6,7-dihydro-5H-pyrrolo[3,4-d]pyrimidin-4-yl)-1-acryloylpiperazin-2-yl)acetonitrile], the IC50 turned out to be 39.5 nM.
With `C=CC(=O)N1CCN(c2nc(OC[C@@H]3CCCN3C)nc3c2CN(C(=O)c2cccc4cccc(C)c24)C3)C[C@@H]1CC#N` [Example 33, 2-((S)-1-acryloyl-4-(6-(8-methyl-1-naphthoyl)-2-(((S)-1-methylpyrrolidin-2-yl)methoxy)-6,7-dihydro-5H-pyrrolo[3,4-d]pyrimidin-4-yl)piperazin-2-yl)acetonitrile] the figure was 22.4 nM.
For `C=CC(=O)N1CCN(c2nc(OC[C@@H]3CCCN3C)nc3c2CN(C(=O)c2c(C)ccc4ccccc24)C3)C[C@@H]1CC#N` [Example 34, 2-((S)-1-acryloyl-4-(6-(2-methyl-1-naphthoyl)-2-(((S)-1-methylpyrrolidin-2-yl)methoxy)-6,7-dihydro-5H-pyrrolo[3,4-d]pyrimidin-4_yl)piperazin-2-yl)acetonitrile] the value was 505 nM.
With `C=CC(=O)N1CCN(c2nc(OC[C@@H]3CCCN3C)nc3c2CN(C(=O)c2cccc4cccc(C5CC5)c24)C3)C[C@@H]1CC#N` [Example 35, 2-((S)-1-acryloyl-4-(6-(8-cyclopropyl-1-naphthoyl)-2-(((S)-1-methylpyrrolidin-2-yl)methoxy)-6,7-dihydro-5H-pyrrolo[3,4-d]pyrimidin-4-yl)piperazin-2-yl)acetonitrile] the figure was 256 nM; with `C=CC(=O)N1CCN(c2nc(OC[C@@H]3CCCN3C)nc3c2CN(C(=O)c2c(O)cccc2F)C3)C[C@@H]1CC#N` [Example 36, 2-((S)-1-acryloyl-4-(6-(2-fluoro-6-hydroxybenzoyl)-2-(((S)-1-methylpyrrolidin-2-yl)methoxy)-6,7-dihydro-5H-pyrrolo[3,4-d]pyrimidin-4-yl)piperazin-2-yl)acetonitrile], 238 nM; with `C=CC(=O)N1CCN(c2nc(OC[C@@H]3CCCN3C)nc3c2CN(C(=O)c2cccc(C)c2Cl)C3)C[C@@H]1CC#N` [Example 37, 2-((S)-1-acryloyl-4-(6-(2-chloro-3-methylbenzoyl)-2-(((S)-1-methylpyrrolidin-2-yl)methoxy)-6,7-dihydro-5H-pyrrolo[3,4-d]pyrimidin-4-yl)piperazin-2-yl)acetonitrile], 27.9 nM.
Consider `C=CC(=O)N1CCN(c2nc(OC[C@@H]3CCCN3C)nc3c2CN(C(=O)Nc2cccc4ccccc24)C3)C[C@@H]1CC#N` [Example 38, 4-((S)-4-acryloyl-3-(cyanomethyl)piperazin-1-yl)-2-(((S)-1-methylpyrrolidin-2-yl)methoxy)-N-(naphthalen-1-yl)-5,7-dihydro-6H-pyrrolo[3,4-d]pyrimidine-6-carboxamide], for which the concentration for half-maximal inhibition (IC50) was determined as 1570 nM.
With `C=CC(=O)N1CCN(c2nc(OC[C@@H]3CCCN3C)nc3c2CN(C2c4ccccc4-c4ccccc42)C3)C[C@@H]1CC#N` [Example 40, 2-((S)-4-(6-(9H-fluoren-9-yl)-2-(((S)-1-methylpyrrolidin-2-yl)methoxy)-6,7-dihydro-5H-pyrrolo[3,4-d]pyrimidin-4-yl)-1-acryloylpiperazin-2-yl)acetonitrile] the figure was 1510 nM; with `C=CC(=O)N1CCN(c2nc(OC[C@@H]3CCCN3C)nc3c2CN(Cc2c(C)ccc4[nH]ncc24)C3)C[C@@H]1CC#N` [Example 41, 2-((S)-1-acryloyl-4-(6-((5-methyl-1H-indazol-4-yl)methyl)-2-(((S)-1-methylpyrrolidin-2-yl)methoxy)-6,7-dihydro-5H-pyrrolo[3,4-d]pyrimidin-4-yl)piperazin-2-yl)acetonitrile], 77.2 nM.
With `C=CC(=O)N1CCN(c2nc(OC[C@@H]3CCCN3C)nc3c2CN(Cc2c(O)ccc4ccccc24)C3)C[C@@H]1CC#N` [Example 42, 2-((S)-1-acryloyl-4-(6-((2-hydroxynaphthalen-1-yl)methyl)-2-(((S)-1-methylpyrrolidin-2-yl)methoxy)-6,7-dihydro-5H-pyrrolo[3,4-d]pyrimidin-4-yl)piperazin-2-yl)acetonitrile] the figure was 9980 nM.
For `C=CC(=O)N1CCN(c2nc(OC[C@@H]3CCCN3C)nc3c2CN(Cc2ccccc2)C3=O)C[C@@H]1CC#N` [Example 44] the value was 9010 nM; for `C=CC(=O)N1CCN(c2nc(OC[C@@H]3CCCN3C)nc3c2CN(C2CCc4ccccc42)C3)C[C@@H]1CC#N` (stereo partly drawn) [Example 45], 12.6 nM; for `C=CC(=O)N1CCN(c2nc(OC[C@@H]3CCCN3C)nc3c2CN(C(=O)c2cc(O)ccc2F)C3)C[C@@H]1CC#N` [Example 46], 172 nM.
As for `C=CC(=O)N1CCN(c2nc(OC[C@@H]3CCCN3C)nc3c2CN(C(=O)c2cc(O)ccc2C)C3)C[C@@H]1CC#N` [Example 47], the half-inhibitory concentration (IC50) amounted to 102 nM.
Regarding `C=CC(=O)N1CCN(c2nc(OC[C@@H]3CCCN3C)nc3c2CN(C(=O)c2cc(N)cc4ccccc24)C3)C[C@@H]1CC#N` [Example 50], the IC50 amounted to 6.16 nM.
With `C=CC(=O)N1CCN(c2nc(OC[C@@H]3C[C@@H](O)CN3C)nc3c2CN(C2Cc4cccc5cccc2c45)C3)C[C@@H]1CC#N` (stereo partly drawn) [Example 51] the figure was 16.1 nM; with `C=CC(=O)N1CCN(c2nc(OC[C@@H]3CCCN3C)nc3c2CN(C(=O)c2cccc4cccc(Br)c24)C3)C[C@@H]1CC#N` [Example 52], 8.51 nM; with `C=CC(=O)N1CCN(c2nc(OC[C@@H]3CCCN3C)nc3c2CN(Cc2cccc(C)c2Cl)C3)C[C@@H]1CC#N` [Example 53], 14.9 nM.
With `C=CC(=O)N1CCN(c2nc(OC[C@@H]3CCCN3C)nc3c2CN(C2Cc4cccc5cc(O)cc2c45)C3)C[C@@H]1CC#N` (stereo partly drawn) [Example 55] the figure was under 5.1 nM; with `C=CC(=O)N1CCN(c2nc(OC[C@@H]3CCCN3C)nc3c2CN(C(=O)c2cccc4cccc(O)c24)C3)C[C@@H]1CC#N` [Example 56], 941 nM.
